One molecule from ChEMBL document CHEMBL4152189, “Incorporation of nitric oxide donor into 1,3-dioxyxanthones leads to synergistic anticancer activity” (Eur J Med Chem, 2018) can be followed below.

Active and inactive are the calls of the source. The rule behind the calls is not given here.

In assay [1] the test system is HepG2. Kind of assay: Induction of apoptosis in human HepG2 cells assessed as increase in cleaved caspase3 level up to 0.66 uM after 24 hrs by Western blot analysis. In kind it is functional, cell-based.
Assay [2] has as its system HepG2. Briefly: Induction of NO generation in human HepG2 cells assessed as nitrite levels at 0.33 uM after 60 hrs by Griess assay (reference value: 12.8 +/- 1.5 uM). In kind it is functional.
The subject of assay [3] is HepG2. Kind of assay: Induction of NO generation in human HepG2 cells assessed as nitrite levels at 0.16 uM after 24 hrs by Griess assay (reference value: 12.8 +/- 1.7 uM). In kind it is functional.
Assay [4] relates to HepG2. Briefly: Growth inhibition of human HepG2 cells pre-incubated with mtADH inhibitor PCDA for 2.5 hrs followed by 0.66 uM compound treatment for 24 hrs by MTT assay. The class given is functional, cell-based.
Assay [5] relates to HepG2. Briefly: Induction of apoptosis in human HepG2 cells assessed as increase in cleaved caspase9 level up to 0.66 uM after 24 hrs by Western blot analysis. In kind it is functional, cell-based.
In assay [6] the test system is HepG2. Briefly: Induction of NO generation in human HepG2 cells assessed as nitrite levels at 0.16 uM after 48 hrs by Griess assay (reference value: 12.8 +/- 1.7 uM). In kind it is functional.
Assay [7] relates to HepG2. Briefly: Growth inhibition of human HepG2 cells after 24 hrs by MTT assay. The class given is functional, cell-based. The conditions noted are these: HepG2, 24 h.
In a further assay the test system is MCF7. Kind of assay: Growth inhibition of human MCF7 cells after 24 hrs by MTT assay. The class given is functional, cell-based. Particulars: MCF7, 24 h.
The subject of the next assay is NIH3T3. Briefly: Growth inhibition of mouse NIH/3T3 cells after 24 hrs by MTT assay. Particulars: NIH3T3, 24 h. The class given is cell-based.
Assay [8] deals with L02. Briefly: Induction of NO generation in human HL-7702 cells assessed as nitrite levels at 0.66 uM after 3 hrs by Griess assay (reference value: 11.6 +/- 1.2 uM). In kind it is functional.
In assay [9] the test system is HepG2. Kind of assay: Induction of apoptosis in human HepG2 cells assessed as late apoptotic/necrotic cells at 0.66 uM after 24 hrs by Annexin-V/propidium iodide staining-based flow cytometric analysis. In kind it is functional.
Assay [10] relates to L02. Briefly: Induction of NO generation in human HL-7702 cells assessed as nitrite levels at 0.66 uM after 1 hr by Griess assay (reference value: 11.6 +/- 1.1 uM). The class given is functional.
Assay [11] has as its system HepG2. Kind of assay: Induction of NO generation in human HepG2 cells assessed as nitrite levels at 0.33 uM after 24 hrs by Griess assay (reference value: 12.8 +/- 1.7 uM). In kind it is functional.
The subject of assay [12] is L02. Kind of assay: Induction of NO generation in human HL-7702 cells assessed as nitrite levels at 0.66 uM after 6 hrs by Griess assay (reference value: 11.8 +/- 1.1 uM). The class given is functional.
For assay [13], the system named is HepG2. Briefly: Induction of NO generation in human HepG2 cells assessed as nitrite levels at 0.66 uM after 48 hrs by Griess assay (reference value: 12.8 +/- 1.7 uM). In kind it is functional.
The test system of assay [14] is HepG2. Briefly: Induction of NO generation in human HepG2 cells assessed as nitrite levels at 0.16 uM after 6 hrs by Griess assay (reference value: 12.6 +/- 1.1 uM). In kind it is functional.
The subject of assay [15] is HepG2. Briefly: Cell cycle arrest in human HepG2 cells assessed as accumulation at S phase at 0.16 to 0.66 uM after 24 hrs by propidium iodide/RNAse staining-based flow cytometric analysis. In kind it is functional.

`COc1cccc2oc3cc(OCCCCCO[N+](=O)[O-])cc(O)c3c(=O)c12`: the Activity result was “Dose-dependent effect” in the assay on HepG2 [1]; 18.2 µM in the assay on HepG2 [2]; 26.2 µM in the assay with HepG2 [3]; “Dose-dependent effect” with HepG2 [5]; 21.3 µM with HepG2 [6]; 15.1 µM in the assay with L02 [8]. In addition, the Activity was found to be 41.7% in the assay with HepG2 [9]; 14.2 µM in the assay with L02 [10]; 35.1 µM in the assay on HepG2 [11]; 17.1 µM in the assay on L02 [12]; 28.1 µM in the assay with HepG2 [13]; 22.9 µM in the assay on HepG2 [14]. Besides, the “growth inhibition (GI)” value in the assay with HepG2 [4] was “inactive”. Further, the IC50 was determined as 0.33 µM in the assay on HepG2 [7], 33.1 µM with MCF7 and 378 µM with NIH3T3. In addition, in the assay with HepG2 [15], the result was Active.
